Values quoted from earlier work as cited in US20210330900A1, “TARGETED ADMINISTRATION TO THE OROPHARYNX OF VISCOUS OR DRY POWDER FLUTICASONE PROPIONATE AND RELATED CORTICOSTEROIDS FOR THE TREATMENT OF EOSINOPHILIC ESOPHAGITIS (EoE)” (Topical Sinus Therapeutics, Inc., priority 2020, published 2021).

- gastrointestinal absorption (compared with other corticosteroids): exceptionally low
- drug inactivated by 1st pass hepatic metabolism (into a single inactive metabolite, after gastrointestinal absorption): 99%
SMILES: C[C@@H]1C[C@H]2[C@@H]3C[C@H](F)C4=CC(=O)C=C[C@]4(C)[C@@]3(F)[C@@H](O)C[C@]2(C)[C@@]1(O)C(=O)SCF [Fluticasone]
